Reference: ChEMBL document CHEMBL1143554, “4-phenoxypiperidines: potent, conformationally restricted, non-imidazole histamine H3 antagonists” (J Med Chem, 2005)

What was measured:
[1] = target: T1, Histamine H3 receptor (Homo sapiens, UniProt Q9Y5N1); experiment: Mean binding affinity for human H3 receptor
[2] = target: T1, Histamine H3 receptor; experiment: Mean functional activity against human H3 receptor; settings: read-out: pA2 (converted)

T1 sequence (Q9Y5N1 whole entry): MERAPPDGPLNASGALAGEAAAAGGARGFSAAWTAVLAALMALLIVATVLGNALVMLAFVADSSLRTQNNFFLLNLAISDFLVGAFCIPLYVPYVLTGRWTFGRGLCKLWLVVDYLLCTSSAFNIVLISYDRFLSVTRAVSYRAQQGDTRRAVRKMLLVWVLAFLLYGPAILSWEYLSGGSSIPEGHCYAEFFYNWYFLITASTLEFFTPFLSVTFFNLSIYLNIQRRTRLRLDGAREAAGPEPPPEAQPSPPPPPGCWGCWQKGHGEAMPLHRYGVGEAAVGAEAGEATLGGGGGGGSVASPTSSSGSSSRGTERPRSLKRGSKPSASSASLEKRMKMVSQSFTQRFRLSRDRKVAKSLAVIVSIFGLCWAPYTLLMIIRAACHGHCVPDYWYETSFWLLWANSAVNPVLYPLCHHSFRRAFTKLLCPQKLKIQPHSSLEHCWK

| SMILES | Ki [1] [nM] | Kb [2] [nM] |
| --- | --- | --- |
| N#Cc1ccc(OC2CCN(C3CCCCC3)CC2)cc1 | 32.4 |  |
| CCC(C)N1CCC(Oc2ccc(C#N)cc2)CC1 (stereo not given) | 15.1 |  |
| N#Cc1ccc(OC2CCNCC2)cc1 | > 10000 |  |
| Cc1ccc2nc(-c3ccc(OCCCN4CCCCC4)cc3)cn2c1 |  | 2.04 |
| CCN1CCC(Oc2ccc(C#N)cc2)CC1 | 81.3 |  |
| CCC(CC)N1CCN(C(=O)CCC(=O)c2ccc(Cl)cc2)CC1 | 0.871 |  |
| CC(C)N1CCC(Oc2ccc(CNc3ccccc3)cc2)CC1 | 5.5 | 2.69 |
| C[C@@H]1CCCN1CCc1cc2cc(C#N)ccc2o1 | 0.447 |  |
| N#Cc1ccc(OCCCCCN2CCCC2)cc1 | 19.1 |  |
| CC(C)N1CCC(Oc2ccc(CN(C)CCN(C)C)cc2)CC1 | 1.15 | 0.214 |
| CC(C)CN1CCC(Oc2ccc(C#N)cc2)CC1 | 66.1 |  |
| CCCN1CCC(Oc2ccc(C#N)cc2)CC1 | 107 |  |
| CC(C)N1CCC(Oc2ccc(CN3CCN(c4ccccc4)CC3)cc2)CC1 | 2 | 1.02 |
| CC(C)N1CCC(Oc2ccc(CN3CCN(C)CC3)cc2)CC1 | 0.741 | 0.257 |
| CC(CO)N1CCC(Oc2ccc(C#N)cc2)CC1 (stereo not given) | 759 |  |
| CC(C)N1CCC(Oc2ccc(CNc3ccccn3)cc2)CC1 | 2.24 | 0.741 |

More lines, now with the values ahead:

| Ki [1] [nM] | Kb [2] [nM] | SMILES |
| --- | --- | --- |
| 0.631 | 0.126 | CC(C)N1CCC(Oc2ccc(CN3CCCCC3)cc2)CC1 |
| 1.23 | 0.468 | CCN(CC)Cc1ccc(OC2CCN(C(C)C)CC2)cc1 |
| 3.02 | 1.17 | CC(C)N1CCC(Oc2ccc(CN(C)C)cc2)CC1 |
| 1 | 0.324 | CC(C)N1CCC(Oc2ccc(CN3CCCN(C)CC3)cc2)CC1 |
| 1 | 0.257 | CC(C)N1CCC(Oc2ccc(CN3CCC(CO)CC3)cc2)CC1 |
| 1.48 | 0.339 | CCCCN(C)Cc1ccc(OC2CCN(C(C)C)CC2)cc1 |
| 1.7 | 0.174 | CC(C)N1CCC(Oc2ccc(CN3CCCCCC3)cc2)CC1 |
| 2 | 0.661 | CC(C)N1CCC(Oc2ccc(CN3CCN(Cc4ccccc4)CC3)cc2)CC1 |
| 1.41 | 0.331 | CC(C)N1CCC(Oc2ccc(CN3CCC(O)CC3)cc2)CC1 |
| 1.45 | 0.813 | CC(C)N1CCC(Oc2ccc(CN3CCC(Cc4ccccc4)CC3)cc2)CC1 |
| 1.62 | 0.457 | CC(C)N1CCC(Oc2ccc(CNC3CC3)cc2)CC1 |
| 1.95 | 0.355 | CC(C)N1CCC(Oc2ccc(CN3CCCC3)cc2)CC1 |
